Results reported in patent publication EP2974714B1, “USE OF DERIVATIVES WITH C-O-P BONDS IN PATIENTS WITH RENAL FAILURE” (LABORATORIS SANIFIT, S.L., priority 2013, dated 2014).

Experiments:
[1] = system: vit D-induced cardiovascular calcification in rats; assay: Inhibition of vit D-induced (300,000 IU/kg x 3) cardiovascular calcification by s.c. IP6; assay type: in vivo, male SD rats; conditions: s.c.
Procedure: Experimental: male SD rats were divided into 9 groups. Two of said groups (sham and control groups) received s.c. saline 2 ml/kg; 6 groups received s.c. […] One group was treated with a s.c. Alzet pump loaded with 200 mg/ml IP6. Calcification was induced by oral administration of 300,000 IU/kg vitamin D (2 ml/kg) for 3 days starting on treatment day 3. […] The calcium content in heart, aorta and kidneys was determined after treatment for 7 days.

[2] = HAP crystallisation induction period (synergy with other treatments); assay type: physicochemical; conditions: drug effect simulated by modifying calcium and phosphate concentrations; control 8 minutes
Procedure: Experimental: hydroxyapatite (HAP) was crystallised by mixing appropriate concentrations of calcium and phosphate at pH 7.4. The effect of cinacalcet and sevelamer was simulated by suitably modifying the calcium and phosphate concentrations. The induction period (time required for HAP to begin to crystallise) was recorded as the analytical signal.

| Compound | dose causing the same effect as 10 mg/kg IP6 [1] | efficacy against calcification (in words) ([1]; at higher doses than IP6) | induction time (without IP6) [2] |
| --- | --- | --- | --- |
| O=P([O-])([O-])OP(=O)([O-])[O-].[Na+].[Na+].[Na+].[Na+] [pyrophosphate, sodium pyrophosphate, reference compound] | 28 mg/kg | good efficacy | – |
| C[C@@H](NCCCc1cccc(C(F)(F)F)c1)c1cccc2ccccc12 [cinacalcet, reference compound] | – | – | 14 min |
